Experimental data published in patent publication US5981541A, “Substituted heterocycles as anti-tumor agents” (Rutgers, The State University of New Jersey, priority 1997, dated 1999).

biological target: T1, human topoisomerase I (Homo sapiens, UniProt P11387); experiment: Topo I-mediated DNA cleavage assay; format: biochemical; details: concentration relative to camptothecin (CPT = 1) producing the same cleavage on plasmid DNA in the presence of human topoisomerase I
T1 construct: 15 amino acid fusion from pET-11a vector (N); made in house; host or cells: E. coli BL21(DE3)
T1 sequence (P11387 1-765): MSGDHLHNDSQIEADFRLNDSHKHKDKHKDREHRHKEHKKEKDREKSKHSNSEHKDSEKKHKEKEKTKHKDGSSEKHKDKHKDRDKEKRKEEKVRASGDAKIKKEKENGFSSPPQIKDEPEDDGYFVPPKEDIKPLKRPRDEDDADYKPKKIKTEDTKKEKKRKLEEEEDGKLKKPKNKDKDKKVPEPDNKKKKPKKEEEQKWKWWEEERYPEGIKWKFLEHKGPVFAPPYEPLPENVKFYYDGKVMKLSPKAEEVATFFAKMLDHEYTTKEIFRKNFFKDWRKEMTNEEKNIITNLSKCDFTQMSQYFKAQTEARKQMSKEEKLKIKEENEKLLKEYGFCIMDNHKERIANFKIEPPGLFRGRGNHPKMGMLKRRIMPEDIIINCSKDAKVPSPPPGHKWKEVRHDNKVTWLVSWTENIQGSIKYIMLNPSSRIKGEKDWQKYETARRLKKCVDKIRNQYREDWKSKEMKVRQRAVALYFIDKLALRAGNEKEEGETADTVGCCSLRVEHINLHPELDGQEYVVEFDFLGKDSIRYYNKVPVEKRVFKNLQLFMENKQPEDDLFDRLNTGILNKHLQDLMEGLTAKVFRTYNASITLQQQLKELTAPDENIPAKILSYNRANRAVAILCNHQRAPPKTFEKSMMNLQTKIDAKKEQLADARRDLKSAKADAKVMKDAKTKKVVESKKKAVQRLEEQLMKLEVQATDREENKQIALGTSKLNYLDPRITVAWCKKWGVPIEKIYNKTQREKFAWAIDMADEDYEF
Description: To obtain large quantity of human topoisomerase I, the human topoisomerase I cDNA was cloned into the pET-11a vector, in which transcription of the cDNA is under the control of the inducible T7 promoter (Studier et al., Methods in Enzymol., Vol. 185:60-89, San Diego: Academic Press (1990)). Briefly, a 3.4 kb DNA fragment containing the entire coding sequence of human topoisomerase I and approximately 1 kb of untranslated region downstream of the stop codon was isolated from the plasmid YCpGAL1-hTOP1 (Bjornsti et al., Cancer Res. 49:6318-6323 (1989)) by cutting at the BamHI and EcoRI sites. The vector pET-11a was cut with the same restriction enzymes, dephosphorylated and ligated to the insert in the proper reading frame downstream of the vector cloning site. […] Since the translational start in pET is positioned at an upstream NdeI site, the expressed topoisomerase I has a 15 amino acid fusion at its N-terminus. pET1B was then transformed into E. coli BL21 (DE3), and, upon induction with 0.4 mM IPTG for 1 hour, the bacterial lysate was analyzed by 10% SDS-PAGE. […] Briefly, E. coli cells were lysed by repeated sonic bursts. The sonic extract was made in 1 M NaCl and 6% polyethylene glycol (PEG) to remove nucleic acids. The PEG supernatant was chromatographed directly on a hydroxyapatite column. […] The eluted enzyme was dialyzed against 50% glycerol, 30 mM potassium phosphate (pH 7.0), 1 mM dithiothreitol (DTT) and 0.1 mM EDTA and stored at -20° C.
(§1) Cleavage assays for the recombinant topoisomerases I and calf thymus topoisomerases I and II were done as described (Liu et al., J. Biol. Chem. 258:15365-15370 (1983)). The plasmid YEpG DNA used for the cleavage assays was prepared and labeled at its 3'-end using the published procedures.

Row | Compound | Topo I-mediated DNA cleavage (REC, Relative Effective Concentration)
1 | COc1cc2cc3c(nc2cc1OC)CCc1ccccc1-3 [Compound 13c, 9,10-Dimethoxy-5,6-dihydrobenz[a]acridine] | 1000
2 | COc1cc2c(cc1OC)-c1cc3ccccc3nc1CC2 [Compound 13d, 2,3-Dimethoxy-5,6-dihydrobenz[a]acridine] | 100
3 | COc1cc2cc3c(nc2cc1OC)CCc1c-3ccc2c1OCO2 [Compound 13e, 5,6-Dihydro-9,10-dimethoxy-3,4-methylenedioxybenz[a]acridine] | 1.0
4 | COc1cc2cc3c(nc2cc1OC)CCc1c-3ccc(OC)c1OC [Compound 13f, 5,6-Dihydro-3,4,9,10-tetramethoxybenz[a]acridine] | 100
5 | Oc1cc2c(cc1O)-c1cc3cc(O)c(O)cc3nc1CC2 [Compound 13g, 2,3,9,10-tetrahydroxy-5,6-dihydrobenz[a]acridine] | 1.0
6 | COc1cc2cc3c(nc2cc1OC)CCc1cc(Cl)ccc1-3 [Compound 13j, 3-Chloro-9,10-dimethoxy-5,6-dihydrobenz[a]acridine] | 10
7 | COc1cc2cc3c(ccc4cc(OC)c(OC)cc43)nc2cc1OC [Compound 14a, 2,3,9,10-Tetramethoxybenz[a]acridine] | 1000
8 | COc1cc2ccc3nc4cc5c(cc4cc3c2cc1OC)OCO5 [Compound 14b, 2,3,-Dimethoxy-9,10-methylenedioxybenz[a]acridine] | 1000
9 | Methylenedioxy-dihydro-demethyl-coralyne [MDD-Coralyne, reference compound] | 0.1

same assay, conditions: summary statement

Row | Compound | topoisomerase I poisoning (in words)
10 | COc1cc2cc3c(nc2cc1OC)CCc1c-3ccc2c1OCO2 [Compound 13e, 5,6-Dihydro-9,10-dimethoxy-3,4-methylenedioxybenz[a]acridine] | potent topoisomerase I poisions

biological target: T2, calf thymus topoisomerase II (Bos taurus, UniProt F1MDU7); experiment: Topo II-mediated DNA cleavage assay; format: biochemical; details: concentration relative to VM26 (= 1) producing the same cleavage on plasmid DNA in the presence of calf thymus topoisomerase II
T2 construct: from tissue; host or cells: calf thymus glands
Description: The plasmid pET11a and the E. coli strain BL21(DE3) used for enzyme expression were purchased from Novagen. IPTG was purchased from Sigma. The ECL system used for the Western blotting analysis of bacterial lysates was from Amersham (UK). All the restriction enzymes and Vent polymerase were from New England Biolabs. Mammalian topoisomerase II was isolated from calf thymus glands according to the published procedure (Halligan et al., J. Biol. Chem. 260:2475-2482 (1985)). The single copy yeast plasmids YCpGAL1 expressing various topoisomerase I genes in JN2-134 yeast strain were a kind gift of Dr. M-A. Bjornsti (Thomas Jefferson University, Philadelphia, Pa.). All bacterial and yeast media were from Difco (Detroit, Mich.), while cell culture media were purchased from Gibco-BRL (Gaithersburg, Md.).
as §1

T2 sequence (F1MDU7 1-1532): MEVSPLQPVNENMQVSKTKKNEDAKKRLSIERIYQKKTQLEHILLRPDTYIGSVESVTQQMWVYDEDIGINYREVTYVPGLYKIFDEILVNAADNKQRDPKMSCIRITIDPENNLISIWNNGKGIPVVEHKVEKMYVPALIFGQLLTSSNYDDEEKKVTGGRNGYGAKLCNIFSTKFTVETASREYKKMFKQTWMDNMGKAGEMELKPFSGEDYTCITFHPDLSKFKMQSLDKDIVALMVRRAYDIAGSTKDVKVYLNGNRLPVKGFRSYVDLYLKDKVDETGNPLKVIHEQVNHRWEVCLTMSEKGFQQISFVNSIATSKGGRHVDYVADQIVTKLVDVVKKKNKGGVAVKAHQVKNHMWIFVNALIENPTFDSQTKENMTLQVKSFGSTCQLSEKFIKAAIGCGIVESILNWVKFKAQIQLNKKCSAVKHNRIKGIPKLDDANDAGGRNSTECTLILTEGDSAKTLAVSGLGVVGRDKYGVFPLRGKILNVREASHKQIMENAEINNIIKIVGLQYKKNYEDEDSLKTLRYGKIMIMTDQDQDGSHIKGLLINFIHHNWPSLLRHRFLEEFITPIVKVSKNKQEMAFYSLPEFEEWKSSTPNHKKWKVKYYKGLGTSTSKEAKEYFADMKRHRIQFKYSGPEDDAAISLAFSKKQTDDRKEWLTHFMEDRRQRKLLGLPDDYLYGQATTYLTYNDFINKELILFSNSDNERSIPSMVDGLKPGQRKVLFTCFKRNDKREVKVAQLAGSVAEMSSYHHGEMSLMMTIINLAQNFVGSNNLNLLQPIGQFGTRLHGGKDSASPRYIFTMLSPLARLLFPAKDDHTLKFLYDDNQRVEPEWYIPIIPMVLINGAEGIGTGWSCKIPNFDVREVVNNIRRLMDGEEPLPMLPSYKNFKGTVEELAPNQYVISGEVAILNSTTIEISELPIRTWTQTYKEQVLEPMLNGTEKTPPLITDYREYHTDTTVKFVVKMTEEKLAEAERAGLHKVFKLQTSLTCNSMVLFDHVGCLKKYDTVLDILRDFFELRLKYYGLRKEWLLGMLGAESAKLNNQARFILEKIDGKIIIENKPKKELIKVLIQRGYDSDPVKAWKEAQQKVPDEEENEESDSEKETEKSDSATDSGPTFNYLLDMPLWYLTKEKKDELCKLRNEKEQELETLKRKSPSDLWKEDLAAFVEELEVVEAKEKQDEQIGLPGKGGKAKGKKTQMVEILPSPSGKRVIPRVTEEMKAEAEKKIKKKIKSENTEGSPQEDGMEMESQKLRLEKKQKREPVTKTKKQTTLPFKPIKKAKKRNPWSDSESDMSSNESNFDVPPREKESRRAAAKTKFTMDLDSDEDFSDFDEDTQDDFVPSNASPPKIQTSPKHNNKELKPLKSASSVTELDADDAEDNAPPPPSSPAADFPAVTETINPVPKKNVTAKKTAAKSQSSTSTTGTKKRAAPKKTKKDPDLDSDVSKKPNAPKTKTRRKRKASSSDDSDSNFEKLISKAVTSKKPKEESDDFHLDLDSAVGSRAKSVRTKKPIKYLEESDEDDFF

Row | Compound | Topo II-mediated DNA cleavage (REC, Relative Effective Concentration)
11 | COc1cc2cc3c(nc2cc1OC)CCc1ccccc1-3 [Compound 13c, 9,10-Dimethoxy-5,6-dihydrobenz[a]acridine] | > 1000
12 | COc1cc2c(cc1OC)-c1cc3ccccc3nc1CC2 [Compound 13d, 2,3-Dimethoxy-5,6-dihydrobenz[a]acridine] | > 1000
13 | COc1cc2cc3c(nc2cc1OC)CCc1c-3ccc2c1OCO2 [Compound 13e, 5,6-Dihydro-9,10-dimethoxy-3,4-methylenedioxybenz[a]acridine] | > 1000
14 | COc1cc2cc3c(nc2cc1OC)CCc1c-3ccc(OC)c1OC [Compound 13f, 5,6-Dihydro-3,4,9,10-tetramethoxybenz[a]acridine] | > 1000
15 | Oc1cc2c(cc1O)-c1cc3cc(O)c(O)cc3nc1CC2 [Compound 13g, 2,3,9,10-tetrahydroxy-5,6-dihydrobenz[a]acridine] | > 1000
16 | COc1cc2cc3c(nc2cc1OC)CCc1cc(Cl)ccc1-3 [Compound 13j, 3-Chloro-9,10-dimethoxy-5,6-dihydrobenz[a]acridine] | > 1000
17 | COc1cc2cc3c(ccc4cc(OC)c(OC)cc43)nc2cc1OC [Compound 14a, 2,3,9,10-Tetramethoxybenz[a]acridine] | > 1000
18 | COc1cc2ccc3nc4cc5c(cc4cc3c2cc1OC)OCO5 [Compound 14b, 2,3,-Dimethoxy-9,10-methylenedioxybenz[a]acridine] | > 1000

system: Human lymphoblast RPMI 8402 cells; experiment: MTT-microtiter plate tetrazolinium cytotoxicity assay (MTA), RPMI 8402; format: cell-based; details: Homo sapiens, RPMI 8402, 96 h, read-out: Cytotoxicity IC50, RPMI
Description: (§2) The IC50 of the drugs tested were determined by the MTT-microtiter plate tetrazolinium cytotoxicity assay (MTA) (Mosmann, T., J. Immunol. Methods 65:55-63 (1983); Denizot et al., J. Immunol. Methods 89:271-277 (1986)). Human lymphoblast RPMI 8402 cells and their camptothecin-resistant CPT-K5 cells (Andoh et al., Proc. Natl. Acad. Sci., USA 84:5565-5569 (1987)) were kindly provided by Dr. Toshiwo Andoh (Aichi Cancer Center Research Institute, Nagoya, Japan). The cell lines A2780 and its camptothecin-resistant derivative CPT-2000 were a generous gift of Dr. Jaulang Hwang (Institute of Molecular Biology, Academia sinica, Taiwan). Cells (2000 cells/well, seeded in […] growth medium) were grown in suspension at 37° C. in 5% CO2 and maintained by regular passage in RPMI medium supplemented with 10% heat inactivated fetal bovine serum, L-glutamine (2 mM), penicillin (100 U/mi), and streptomycin (0.1 mg/ml). The cells were exposed continuously for 4 days to drug concentrations ranging from 100 ug/ml to 1.0 ng/ml in ten fold dilutions, and assayed at the end of the fourth day. Each concentration and the no drug control were repeated at least twice in 6 replica wells. The results were plotted and the IC50 then measured. The drug sensitive human epidermoid carcinoma KB 3-1 cell line and its vinblastine-selected multidrug-resistant variant KB-V1 cells (Akiyama et al., Genetics 11:117-126 (1985)) were kindly provided by Dr. Michael Gottesmann (National Cancer Institute). They were grown as monolayer cultures at 37° C. in 5% CO2 and maintained by regular passage in Dulbecco's minimal essential medium supplemented with 10% heat inactivated fetal bovine serum. KB-V1 cells were maintained in the presence of […] vinblastine.

Row | Compound | IC50 [µM]
19 | COc1cc2cc3c(nc2cc1OC)CCc1ccccc1-3 [Compound 13c, 9,10-Dimethoxy-5,6-dihydrobenz[a]acridine] | 6.9
20 | COc1cc2c(cc1OC)-c1cc3ccccc3nc1CC2 [Compound 13d, 2,3-Dimethoxy-5,6-dihydrobenz[a]acridine] | 1
21 | COc1cc2cc3c(nc2cc1OC)CCc1c-3ccc2c1OCO2 [Compound 13e, 5,6-Dihydro-9,10-dimethoxy-3,4-methylenedioxybenz[a]acridine] | 3
22 | COc1cc2cc3c(nc2cc1OC)CCc1c-3ccc(OC)c1OC [Compound 13f, 5,6-Dihydro-3,4,9,10-tetramethoxybenz[a]acridine] | 14.2
23 | Oc1cc2c(cc1O)-c1cc3cc(O)c(O)cc3nc1CC2 [Compound 13g, 2,3,9,10-tetrahydroxy-5,6-dihydrobenz[a]acridine] | 20.3
24 | COc1cc2cc3c(nc2cc1OC)CCc1cc(Cl)ccc1-3 [Compound 13j, 3-Chloro-9,10-dimethoxy-5,6-dihydrobenz[a]acridine] | 9.2
25 | COc1cc2cc3c(ccc4cc(OC)c(OC)cc43)nc2cc1OC [Compound 14a, 2,3,9,10-Tetramethoxybenz[a]acridine] | 2.9
26 | COc1cc2ccc3nc4cc5c(cc4cc3c2cc1OC)OCO5 [Compound 14b, 2,3,-Dimethoxy-9,10-methylenedioxybenz[a]acridine] | 4.5

same assay, conditions: rpmi 8402 cells, 96 h

Row | Compound | IC50 [µM]
27 | Methylenedioxy-dihydro-demethyl-coralyne [MDD-Coralyne, reference compound] | 8.1

system: camptothecin-resistant CPT-K5 cells; experiment: MTT-microtiter plate tetrazolinium cytotoxicity assay (MTA), CPT-K5; format: cell-based, human; details: Homo sapiens, CPT-K5, 96 h, read-out: Cytotoxicity IC50, CPT-K5
Description: as §2

Row | Compound | IC50 [µM]
28 | COc1cc2cc3c(nc2cc1OC)CCc1ccccc1-3 [Compound 13c, 9,10-Dimethoxy-5,6-dihydrobenz[a]acridine] | 6.9
29 | COc1cc2c(cc1OC)-c1cc3ccccc3nc1CC2 [Compound 13d, 2,3-Dimethoxy-5,6-dihydrobenz[a]acridine] | 8.6
30 | COc1cc2cc3c(nc2cc1OC)CCc1c-3ccc2c1OCO2 [Compound 13e, 5,6-Dihydro-9,10-dimethoxy-3,4-methylenedioxybenz[a]acridine] | 22.4
31 | COc1cc2cc3c(nc2cc1OC)CCc1c-3ccc(OC)c1OC [Compound 13f, 5,6-Dihydro-3,4,9,10-tetramethoxybenz[a]acridine] | 14.2
32 | Oc1cc2c(cc1O)-c1cc3cc(O)c(O)cc3nc1CC2 [Compound 13g, 2,3,9,10-tetrahydroxy-5,6-dihydrobenz[a]acridine] | 13.6
33 | COc1cc2cc3c(nc2cc1OC)CCc1cc(Cl)ccc1-3 [Compound 13j, 3-Chloro-9,10-dimethoxy-5,6-dihydrobenz[a]acridine] | 15.4
34 | COc1cc2cc3c(ccc4cc(OC)c(OC)cc43)nc2cc1OC [Compound 14a, 2,3,9,10-Tetramethoxybenz[a]acridine] | 2.9
35 | COc1cc2ccc3nc4cc5c(cc4cc3c2cc1OC)OCO5 [Compound 14b, 2,3,-Dimethoxy-9,10-methylenedioxybenz[a]acridine] | 7.5

same assay, conditions: cpt-k5 cells, 96 h

Row | Compound | IC50 [µM]
36 | Methylenedioxy-dihydro-demethyl-coralyne [MDD-Coralyne, reference compound] | 27
